In patent US20220331303A1, “USE OF AN OREXIN 2 RECEPTOR AGONIST FOR THE TREATMENT OF EXCESSIVE SLEEPINESS” (Takeda Pharmaceutical Company Limited, priority 2019, published 2022):
Values joined by “and” are separate entries in the source; they are usually repeats but may differ in a detail not shown here. Equal values may be shown once.

Tested on: sleep-deprived healthy volunteers
Assay: Maintenance of wakefulness test (MWT) in sleep-deprived healthy volunteers
Format: in vivo, human
Description: The primary objective of this study was to determine the effect of Compound A (methyl (2R,3S)-3-((methylsulfonyl)amino)-2-(((cis-4-phenylcyclohexyl)oxy)methyl)piperidine-1-carboxylate), 44 mg (low dose [LD]) and 112 mg (high dose [HD]), after a single IV dose (compared to placebo) on promoting wakefulness as measured by sleep latency on the MWT (performed at approximately 2, 4, 6, and 8 hours post-dosing starting at approximately 1:00 AM and then at approximate times of 3:00, 5:00, and 7:00 AM) in sleep-deprived healthy volunteers.
This was a phase 1b, single-center, randomized, double-blind, double-dummy, placebo- and active-controlled, 4-period Williams design crossover study to evaluate the PK, PD, and safety of Compound A in sleep-deprived healthy volunteers. Compound A was administered as a 9-hour IV infusion.
Healthy adult male subjects aged 18 to 40 years, inclusive, who satisfied the inclusion and exclusion criteria were enrolled in the trial. On Day 1 of treatment period 1, eligible subjects were equally randomized to 4 treatment sequence groups (sequence 1 to 4) which defined the order of administration for Compound A LD, Compound A HD (both delivered as a 9-hour IV infusion), modafinil 300 mg, and placebo.
During the day before dosing on Day 1, participants were administered the KSS at scheduled timepoints. A practice MWT session was performed on Day 1 treatment period 1 (only once during the entire study) to familiarize subjects with the procedures. Study drug was administered in the clinic in the evening on Day 1 of each treatment period. Subjects underwent the MWT and KSS at specified timepoints after the start of the infusion. Subjects were required to stay awake between the MWT tests. Following completion of the IV infusion on Day 2, subjects underwent an additional MWT test. When the final MWT test and cognitive testing were completed, subjects were allowed to sleep (recovery sleep) for approximately 6 hours. PSG recording was collected during this time. Subjects were discharged from the unit after completion on Day 2 with continuing actigraphy upon discharge (to begin on Day −6 before the next treatment period). The interval between each subsequent treatment period was at least 7 days to ensure that the subject's circadian rhythm had returned to a normal cycle. Subject's vital signs, including BP, were monitored during the dosing and testing period. Blood samples for determination of Compound A plasma concentrations were collected at specified timepoints on Days 1 and 2 of each treatment period. Subjects completed the Columbia-Suicide Severity Rating Scale (C-SSRS) during screening, before study drug administration, and before discharge on Day 2 of each treatment period.
Primary endpoint: Latency for each MWT, defined as time to sleep onset.

[1] = Compound A 44 mg (LD), 2 hours post infusion start
[2] = Compound A 44 mg (LD), 4 hours post infusion start
[3] = Compound A 44 mg (LD), 6 hours post infusion start
[4] = Compound A 44 mg (LD), 8 hours post infusion start
[5] = Compound A 44 mg (LD), average overall during infusion
[6] = Compound A 44 mg (LD, printed ED), 2 hours post infusion start
[7] = Compound A 44 mg (LD, printed ED), 4 hours post infusion start
[8] = Compound A 44 mg (LD, printed ED), 8 hours post infusion start
[9] = Compound A 44 mg, after the end of infusion (1 hour post end of infusion)
[10] = Compound A 112 mg (HD), 2 hours post infusion start
[11] = Compound A 112 mg (HD), 4 hours post infusion start

With COC(=O)N1CCC[C@H](NS(C)(=O)=O)[C@@H]1CO[C@H]1CC[C@@H](c2ccccc2)CC1 [Compound A, methyl (2R,3S)-3-((methylsulfonyl)amino)-2-(((cis-4-phenylcyclohexyl)oxy)methyl)piperidine-1-carboxylate] the “Average total wake time (MWT), LS mean difference vs placebo” value (Compound A 44 mg) was 16.36 min, the “Total sleep time (MWT) compared to placebo” value (Compound A 44 mg) was “not significantly different than placebo” and the “Latency to Sleep Onset on MWT, LS Mean” value [1] was 35.74 min. The “Latency to Sleep Onset on MWT, LS Mean Difference vs placebo” value [1] was 20.06 min, the “Stage N1 Duration (MWT), LS Mean” value [1] was 0.13 min and the “Stage N1 Duration (MWT), LS Mean Difference vs placebo” value [1] was -1.02 min. For the same molecule, the “Stage N2 Duration (MWT), LS Mean” value [1] was 0.24 min, the “Stage N2 Duration (MWT), LS Mean Difference vs placebo” value [1] was -0.61 min and the “Total Microsleeps (MWT), LS Mean” value [1] was 0.38. The “Total Microsleeps (MWT), LS Mean Difference vs placebo” value [1] was −1.42, the “Duration Total Microsleeps (MWT), LS Mean” value [2] was 10.39 s and the “Duration Total Microsleeps (MWT), LS Mean Difference vs placebo” value [2] was -1.91 s. For the same molecule, the “Stage N1 Duration (MWT), LS Mean” value [2] was 0.52 min, the “Stage N1 Duration (MWT), LS Mean Difference vs placebo” value [2] was -1.13 min and the “Stage N2 Duration (MWT), LS Mean” value [2] was 0.51 min. The “Stage N2 Duration (MWT), LS Mean Difference vs placebo” value [2] was -0.64 min, the “Total Microsleeps (MWT), LS Mean” value [2] was 2.21 and the “Total Microsleeps (MWT), LS Mean Difference vs placebo” value [2] was −0.14. For the same molecule, the “Duration Total Microsleeps (MWT), LS Mean” value [3] was 11.84 s, the “Duration Total Microsleeps (MWT), LS Mean Difference vs placebo” value [3] was 4.44 s and the “Latency to Sleep Onset on MWT, LS Mean” value [3] was 20.71 min. The “Latency to Sleep Onset on MWT, LS Mean Difference vs placebo” value [3] was 14.56 min, the “Stage N1 Duration (MWT), LS Mean” value [3] was 1.80 min and the “Stage N1 Duration (MWT), LS Mean Difference vs placebo” value [3] was 0.65 min. For the same molecule, the “Stage N2 Duration (MWT), LS Mean” value [3] was 2.63 min, the “Stage N2 Duration (MWT), LS Mean Difference vs placebo” value [3] was 2.13 min and the “Total Microsleeps (MWT), LS Mean” value [3] was 2.32. For the same molecule, the “Total Microsleeps (MWT), LS Mean Difference vs placebo” value [3] was 1.07, the “Latency to Sleep Onset on MWT, LS Mean” value [4] was 13.13 min and the “Latency to Sleep Onset on MWT, LS Mean Difference vs placebo” value [4] was 9.60 min. The “Stage N1 Duration (MWT), LS Mean” value [4] was 1.57 min, the “Stage N1 Duration (MWT), LS Mean Difference vs placebo” value [4] was 0.42 min and the “Stage N2 Duration (MWT), LS Mean” value [4] was 3.74 min. The “Stage N2 Duration (MWT), LS Mean Difference vs placebo” value [4] was 2.64 min, the “Total Microsleeps (MWT), LS Mean” value [4] was 2.10 and the “Total Microsleeps (MWT), LS Mean Difference vs placebo” value [4] was 0.80. The “Duration Total Microsleeps (MWT), LS Mean” value [5] was 8.89 s, the “Duration Total Microsleeps (MWT), LS Mean Difference vs placebo” value [5] was -0.18 s and the “Latency to Sleep Onset on MWT, LS Mean” value [5] was 25.40 min and 25.40 (1.955) min. The “Latency to Sleep Onset on MWT, LS Mean Difference vs placebo” value [5] was 16.79 min and 16.8 min and 16.79 (2.682) min, the “Stage N1 Duration (MWT), LS Mean” value [5] was 1.01 min and the “Stage N1 Duration (MWT), LS Mean Difference vs placebo” value [5] was -0.27 min. The “Stage N2 Duration (MWT), LS Mean” value [5] was 1.78 min, the “Stage N2 Duration (MWT), LS Mean Difference vs placebo” value [5] was 0.88 min and the “Total Microsleeps (MWT), LS Mean” value [5] was 1.75. For the same molecule, the “Total Microsleeps (MWT), LS Mean Difference vs placebo” value [5] was 0.08, the “Duration Total Microsleeps (MWT), LS Mean” value [6] was 1.61 s and the “Duration Total Microsleeps (MWT), LS Mean Difference vs placebo” value [6] was -7.19 s. The “Latency to Sleep Onset on MWT, LS Mean” value [7] was 32.04 min, the “Latency to Sleep Onset on MWT, LS Mean Difference vs placebo” value [7] was 22.94 min and the “Duration Total Microsleeps (MWT), LS Mean” value [8] was 11.72 s. The “Duration Total Microsleeps (MWT), LS Mean Difference vs placebo” value [8] was 3.92 s, the “Latency to Sleep Onset on MWT, LS Mean (SE)” value [9] was 2.49 (2.241) and the “Latency to Sleep Onset on MWT, LS Mean Difference vs placebo, Estimate (SE)” value [9] was −2.16 (2.752). For the same molecule, the “Average total wake time (MWT), LS mean difference vs placebo” value (Compound A 112 mg) was 29.59 min, the “Sleep latency on the MWT during infusion, stayed across several sessions” value (Compound A 112 mg) was 40 min and the “Total sleep time (MWT), LS mean difference vs placebo” value (Compound A 112 mg) was -2.56 min. For the same molecule, the “Duration Total Microsleeps (MWT), LS Mean” value [10] was -0.02 s, the “Duration Total Microsleeps (MWT), LS Mean Difference vs placebo” value [10] was -8.82 s and the “Latency to Sleep Onset on MWT, LS Mean” value [10] was 40.02 min. For the same molecule, the “Latency to Sleep Onset on MWT, LS Mean Difference vs placebo” value [10] was 24.35 min, the “Stage N1 Duration (MWT), LS Mean” value [10] was -0.04 min and the “Stage N1 Duration (MWT), LS Mean Difference vs placebo” value [10] was -1.19 min. The “Stage N2 Duration (MWT), LS Mean” value [10] was 0.00 min, the “Stage N2 Duration (MWT), LS Mean Difference vs placebo” value [10] was -0.85 min and the “Total Microsleeps (MWT), LS Mean” value [10] was 0.00. The “Total Microsleeps (MWT), LS Mean Difference vs placebo” value [10] was −1.80, the “Duration Total Microsleeps (MWT), LS Mean” value [11] was -0.02 s and the “Duration Total Microsleeps (MWT), LS Mean Difference vs placebo” value [11] was -12.3 s. The “Latency to Sleep Onset on MWT, LS Mean” value [11] was 40.05 min, the “Latency to Sleep Onset on MWT, LS Mean Difference vs placebo” value [11] was 30.95 min and the “Stage N1 Duration (MWT), LS Mean” value [11] was -0.04 min. For the same molecule, the “Stage N1 Duration (MWT), LS Mean Difference vs placebo” value [11] was -1.69 min and the “Stage N2 Duration (MWT), LS Mean” value [11] was 0.00 min.
